Blank lines part the entries; values can stand above or below the compound they belong to.
Key:
[1] = test system: human coronary artery smooth muscle cells; experiment: Anti-proliferative activity in non-synchronized cultured human coronary artery smooth muscle cells stimulated with two percent fetal bovine serum; assay type: cell-based; conditions: for effect on the anti-proliferative rapamycin dose response curve: agent added to rapamycin-treated non-synchronized cells, mycophenolic acid zero to one thousand nanomolar, cladribine zero to nine hundred nanomolar
Source text: The multiple curves represent various concentrations of mycophenolic acid ranging from zero to one thousand nanomolar concentrations.
FIG. 58 illustrates, in graphical format, the anti-proliferative activity of cladribine in non-synchronized cultured human coronary artery smooth muscle cells stimulated with two percent fetal bovine serum.
The multiple curves represent various concentrations of cladribine ranging from zero to nine hundred nanomolar concentrations.

[2] = test system: human smooth muscle cells; experiment: Cladribine Example, PDGF-stimulated cell proliferation (cell count), smooth muscle cells; assay type: cell-based; conditions: from the IC50 values
Protocol: To assess the ability of cladribine to prevent cell proliferation, human smooth muscle or endothelial cells (Clonetics, Walkersville, Md.) were seeded at a density of 2000 cells/cm^2 (approximately 3600 cells/well) into each well of 12-well plates and cultured with 1.5 ml of growth medium containing five percent fetal calf serum (FCS). After twenty-four hours, the growth medium was changed and fresh medium containing 10 ng/ml platelet-derived growth factor AB (PDGF AB; LIFE Technologies), as well as various concentrations of cladribine (0.001-10,000 nM) were added with triplicate wells. Medium was replaced with fresh cladribine-containing medium after three days. On day six, cells were detached by trypsinization to yield a cell suspension, lightly centrifuged to pellet and then counted manually using a Neubauer hemocytometer system. Cell viability was assessed by trypan blue exclusion.

[3] = In vivo release kinetics from rapamycin/cladribine EVA/BMA coating on Bx Velocity stents, Yorkshire pigs; set-up: species or system porcine; conditions: 600 microgram basecoat, 200 microgram BMA topcoat
Source text: (§1) The basecoat is applied to Bx Velocity® stents and implanted into Yorkshire pigs.
as §1

[4] = test system: human coronary artery smooth muscle cells; experiment: Anti-proliferative activity in synchronized cultured human coronary artery smooth muscle cells stimulated with two percent fetal bovine serum; assay type: cell-based; conditions: for effect on the anti-proliferative rapamycin dose response curve: agent added to rapamycin-treated synchronized cells, topotecan to 300 nanomolar, etoposide to eight hundred nanomolar, Panzem to 100 micromolar
Source text: (§2) The multiple curves represent various concentrations of topotecan ranging from zero to three hundred nanomolar concentrations.
(§3) The multiple curves represent various concentrations of etoposide ranging from zero to eight hundred nanomolar concentrations.
The multiple curves represent various concentrations of Panzem® ranging from zero to 100 micromolar concentrations.

cell viability = experiment: Cell viability assay; assay type: cell-based
Source text: as §2, §3

[5] = test system: human coronary artery smooth muscle cell survival; conditions: 6.6 nanomolar to 30,000.00 nanomolar
Source text: In vitro cytotoxicity tests or assays may be utilized to determine if drugs, agents and/or compounds are potentially toxic and the level of toxicity. Essentially, in vitro cytotoxicity assays determine acute necrotic effects by a drug causing direct cellular damage. The idea behind these assays is that toxic chemicals affect basic functions of cells which are common to all cells. […] There are a number of different assays that may be utilized. In the present invention, the cytotoxicity assay utilized is based upon the measurement of cellular metabolic activity. A reduction in metabolic activity is an indication of cellular damage. Tests that can measure metabolic function measure cellular ATP levels or mitochondrial activity via MTS metabolism. FIG. 69 is a graphical representation of the results of an MTS assay of Panzem®.

[6] = Liquid formulations of sirolimus with PEG 200, ethanol and water; concentrations by liquid chromatography; assay type: physicochemical; conditions: 4 mg/ml formulation with PEG 200, ethanol and water
Source text: In accordance with exemplary embodiments of the present invention, a series of liquid formulations were developed for the local or regional delivery of water insoluble compounds such as sirolimus and its analogs, including CCl-779, ABT-578 and everolimus, through weeping balloons and catheter injection needles. […] These liquid formulations increase the apparent solubility of the pharmacologically active but water insoluble compounds by two to four orders of magnitude as compared to the solubility limits of the compounds in water. These liquid formulations rely on the use of a very small amount of organic solvents such as Ethanol (typically less than two percent) and a larger amount of safe amphiphilic (of or relating to a molecule having a polar, water soluble group attached to a non-polar, water insoluble […]) excipients such as polyethylene glycol (PEG 200, PEG 400) and vitamin E TPGS to enhance the solubility of the compounds. These liquid formulations of highly water insoluble compounds are stable and readily flowable at room temperature. Certain excipients, such as Vitamin E TPGS and BHT may be utilized to enhance the storage stability of sirolimus compounds through their anti-oxidation properties. […]

[7] = In vivo release kinetics from rapamycin/mycophenolic acid EVA/BMA coating, porcine pharmacokinetics studies; conditions: 180 micrograms each of rapamycin and mycophenolic acid in 600 microgram basecoat, with or without BMA topcoat
[8] = test system: human coronary artery smooth muscle cell proliferation; experiment: In vitro cell culture study of coronary artery smooth muscle cell proliferation; assay type: cell-based
Source text: FIG. 51 is a graph of the inhibition of coronary artery smooth muscle cells by trichostatin A in a cell culture study.

tumor cell lines = conditions: cited from earlier work

in vivo elution from EVA/BMA basecoat compared with rapamycin [3]: elutes more rapidly than rapamycin
Compound: Nc1nc(Cl)nc2c1ncn2[C@H]1C[C@H](O)[C@@H](CO)O1 [Cladribine, 2-chlorodeoxyadenosine]
effect on the anti-proliferative rapamycin dose response curve [1]: potentiate the anti-proliferative activity of rapamycin | inhibition of human coronary artery smooth muscle cell proliferation ([1]; non-synchronized cells, two percent fetal bovine serum): completely inhibits | potency on smooth muscle cells relative to endothelial cells [2]: approximately twice as potent

Compound: COc1cc([C@@H]2c3cc4c(cc3[C@@H](O[C@@H]3O[C@@H]5CO[C@@H](C)O[C@H]5[C@H](O)[C@H]3O)[C@H]3COC(=O)[C@H]23)OCO4)cc(OC)c1O [Etoposide, etoposide]
effect on the anti-proliferative rapamycin dose response curve [4]: potentiate the anti-proliferative activity of rapamycin | cytotoxicity in cell viability assay (cell viability; concentrations up to ten micromolar): non-cytotoxic

Compound: COc1cc2c(cc1O)CC[C@@H]1[C@@H]2CC[C@]2(C)[C@@H](O)CC[C@@H]12 [Panzem®, 2-methoxyestradiol]
effect on the anti-proliferative rapamycin dose response curve [4]: increases the percent of inhibition of rapamycin alone | anti-proliferative activity alone ([4]; synchronized cells, two percent fetal bovine serum): extremely effective inhibitor | cytotoxicity (MTS assay) [5]: do not reduce human coronary artery smooth muscle cell survival

Compound: CO[C@H]1C[C@@H]2CC[C@@H](C)[C@@](O)(O2)C(=O)C(=O)N2CCCC[C@H]2C(=O)O[C@H]([C@H](C)C[C@@H]2CC[C@@H](O)[C@H](OC)C2)CC(=O)[C@H](C)/C=C(\C)[C@@H](O)[C@@H](OC)C(=O)[C@H](C)C[C@H](C)/C=C/C=C/C=C/1C [Rapamycin, rapamycin]
concentration relative to the solubility of sirolimus in water [6]: about four hundred to about one thousand times higher

Compound: CC[C@@]1(O)C(=O)OCc2c1cc1n(c2=O)Cc2cc3c(CN(C)C)c(O)ccc3nc2-1 [Topotecan, topotecan]
effect on the anti-proliferative rapamycin dose response curve [4]: potentiate the anti-proliferative activity of rapamycin | cytotoxicity in cell viability assay (cell viability; concentrations up to one micromolar): non-cytotoxic

Compound: COc1c(C)c2c(c(O)c1C/C=C(\C)CCC(=O)O)C(=O)OC2 [mycophenolic acid]
effect on the anti-proliferative rapamycin dose response curve [1]: potentiates the anti-proliferative activity of rapamycin | in vivo elution from EVA/BMA basecoat compared with rapamycin [7]: elutes more completely over a shorter duration than the rapamycin

Compound: CC(/C=C/C(=O)NO)=C\[C@@H](C)C(=O)c1ccc(N(C)C)cc1 [trichostatin A]
IC50 ([8]; human coronary artery smooth muscle cells, read-out: anti-proliferative IC50): ~6 nM | inhibition of human coronary artery smooth muscle cell proliferation ([8]; in vitro cell culture): completely inhibit | anti-proliferative IC50 (tumor cell lines): low nM range

— patent US20090104246A1 (priority 2004, published 2009)
